# According to PMC10530652 (BME Frontiers, 2021):
# Experiments:
# [1] = tested on: MMP activity in ex vivo ventilated ovine lung; assay: Ex vivo ovine lung model instilled with OPA supernatant, FCFM imaging; conditions: 5 μM FIB One in 1 mL, OPA supernatant-instilled segments, n=3
# Description: Ovine pulmonary adenocarcinoma (OPA) tissue was homogenised using a drill homogeniser, followed by lysis in cell lysis buffer. The supernatant was collected following centrifugation at 12,000 rpm for 20 min. The samples were adjusted to 1 mg mL^-1 total protein (determined by a Pierce BCA Total Protein Assay Kit (Thermo Fisher Scientific)). Zymography (as described above) was performed to confirm MMP activity across multiple OPA samples. Recombinant MMP-9 (2 nM) and recombinant pro-MMP-9 (0.5 nM) were included in the assay as positive controls. […] Following >30 min, the segments were bronchoscopically identified and microdosed with 5 μM FIB One in 1 mL. FCFM imaging was undertaken pre- and postinstillation (Cellvizio®, Mauna Kea Technologies). This was performed by passing a FCFM fibre into the disparate bronchopulmonary segments (up to 5 passes per bronchopulmonary segment to capture a regional representation of fluorescence), recording images at 12 frames per second and imaging for up to 5 minutes. Videos were analysed as described above. Each experimental set was normalised to the control segment (segment with 1 mL 0.9% NaCl instilled) which represents intrinsic autofluorescence.
# [2] = tested on: primary human lung tissue; assay: Ex vivo fibre-based (FCFM) imaging of human lung tissue with FIB One; conditions: FIB One 1 μM, imaged 10 min, FCFM 488 nm excitation, n=9
# Description: Human lung tissue samples (lung tumour and noncancerous adjacent tissue) were obtained following surgical resection and stored at -80° C until use. Processing for multiwell plate reader assay or zymography analysis was conducted as follows: 1 mm×4 mm sections were homogenised in 400 μL MMP buffer in Precellys 2.8 mm ceramic bead tubes (VWR) using a Pecellys 24 homogeniser. Homogenised tissue was adjusted to 4 mg mL^-1 protein (determined by a Pierce BCA Total Protein Assay Kit (Thermo Fisher Scientific), following the manufacturer’s instructions). Multiwell plate reader assays were performed as previously described, replacing the MMP buffer and MMP enzymes for the homogenised and protein-adjusted lung tissue.
# For ex vivo imaging, human lung tissue was sliced into 1 mm×4 mm sections and placed in the wells of a 96-well plate with 100 μL of MMP buffer and 30 nM MMP-13. […] The fluorescence for each sample was calculated by determining the average fluorescence per frame for each time point. […] Five independent patient specimens were collected and analysed. RFUs collected from off-target frames (showing motion artefact or absence of any fluorescence) were omitted during analysis.
# [3] = tested on: MMP-12; conditions: placebo-controlled, 55 COPD patients; cited from earlier work
# Text: (§1) MMP inhibition has been identified as a target for drug interventions in inflammatory diseases. MMP inhibitors used in trials as cancer therapies were disappointing due to lack of efficacy and significant adverse effects. Studies have also been limited by a lack of quantifiable biomarkers to reflect on their in vivo and functional activity. […] It had previously been used in a phase 2A safety and tolerab ...
# [4] = tested on: emphysema patients; conditions: 74 emphysema patients, placebo or AZD1236 75 mg twice daily for 6 weeks; cited from earlier work
# Text: as §1
# [5] = biological target: T1, MMP-9 (Homo sapiens, UniProt P14780); conditions: placebo-controlled, 55 COPD patients; cited from earlier work
# T1 construct: recombinant MMPs (Enzo Life Sciences) (active domains of MMP-1, MMP-2, MMP-3, MMP-7, MMP-8, MMP-9, MMP-10, MMP-11, MMP-12, and MMP-13); purchased Enzo Life Sciences
# Text: as §1
# [6] = Stability study of AZD1236 aqueous formulation (HPLC); type: physicochemical; conditions: for Conc. / pH: aqueous formulation; for Conc. / Total imp. RRT(%): HPLC; for ∆%: relative to starting concentration of 70µg/5mL
# Description: Summary table of stability as assessed by HPLC over 24 months stored under GMP conditions at RT. Data shown in blue represents inverted position vials. ∆% is relative to starting concentration of 70µg/5mL at time zero. Acceptance criteria: Retention time (RT) for AZD1236 is 3.97 min (Range 3.40-4.50 min). Total impurities – report as RRT (%) for each impurity. Biological functionality LOD = >21µg/5mL. pH 7.5 (7.0-8.0).
# [7] = room temperature, 12m, 1st of 2 vials
# [8] = room temperature, 12m, 2nd of 2 vials
# [9] = room temperature, 18m, 1st of 2 vials
# [10] = room temperature, 18m, 2nd of 2 vials
# [11] = room temperature, 24m, 1st of 2 vials
# [12] = room temperature, 24m, 2nd of 2 vials
# [13] = room temperature, 1m, 1st of 2 vials
# [14] = room temperature, 1m, 2nd of 2 vials
# [15] = room temperature, 3m, 1st of 2 vials
# [16] = room temperature, 3m, 2nd of 2 vials
# [17] = room temperature, 6m, 1st of 2 vials
# [18] = room temperature, 6m, 2nd of 2 vials
# [19] = room temperature, 10.5m, 1st of 2 vials
# [20] = room temperature, 10.5m, 2nd of 2 vials
# [21] = room temperature, 24h, 1st of 2 vials
# [22] = room temperature, 24h, 2nd of 2 vials
# [23] = room temperature, 15d, 1st of 2 vials
# [24] = room temperature, 15d, 2nd of 2 vials
# T1 sequence (P14780 107-444 limits assumed): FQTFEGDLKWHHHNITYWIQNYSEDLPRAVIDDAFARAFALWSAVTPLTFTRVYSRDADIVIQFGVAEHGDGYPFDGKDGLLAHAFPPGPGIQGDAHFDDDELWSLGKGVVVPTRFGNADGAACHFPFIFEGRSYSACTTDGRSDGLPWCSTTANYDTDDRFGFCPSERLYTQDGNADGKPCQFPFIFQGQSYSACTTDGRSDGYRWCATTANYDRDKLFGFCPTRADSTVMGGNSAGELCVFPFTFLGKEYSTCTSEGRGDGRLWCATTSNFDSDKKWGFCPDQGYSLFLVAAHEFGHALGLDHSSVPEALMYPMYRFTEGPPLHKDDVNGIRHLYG
substance,measurement,setting,value
(Pro-Phe-Gly-Nle-Lys-βAla)3 [FIB One],FIB One fluorescence in segments with high MMP activity,[1],diffuse pattern of increased fluorescence
same,cleavage of FIB One,[2],cleaved
AZD1236,MMP-12 inhibition in induced sputum,[3],failed to demonstrate
same,effect on the secondary lung physiology endpoints,[4],no effect
same,MMP-9 inhibition in induced sputum,[5],failed to demonstrate
same,biological functionality in aqueous formulation,"[6]; 24 months, GMP conditions at RT, biological functionality LOD = >21µg/5mL",remains biologically functional
same,degradation in aqueous formulation of the drug product (HPLC traces),"[6]; after 24 months, stored at ambient temperature",no degradation
same,Conc.,"[6]; room temperature, 1m, 1st of 2 vials (one inverted)",77.0 µg per 5mL
same,Conc.,"[6]; room temperature, 1m, 2nd of 2 vials (one inverted)",76.8 µg per 5mL
same,Conc.,"[6]; room temperature, 3m, 1st of 2 vials (one inverted)",69.4 µg per 5mL
same,Conc.,"[6]; room temperature, 3m, 2nd of 2 vials (one inverted)",69.4 µg per 5mL
same,Conc.,"[6]; room temperature, 6m, 1st of 2 vials (one inverted)",70.8 µg per 5mL
same,Conc.,"[6]; room temperature, 6m, 2nd of 2 vials (one inverted)",70.6 µg per 5mL
same,Conc.,"[6]; room temperature, 10.5m, 1st of 2 vials (one inverted)",71.1 µg per 5mL
same,Conc.,"[6]; room temperature, 10.5m, 2nd of 2 vials (one inverted)",70.7 µg per 5mL
same,pH,[6]; [7],7.5
same,pH,[6]; [8],7.5
same,Conc.,"[6]; room temperature, 12m, 1st of 2 vials (one inverted)",70.0 µg per 5mL
same,Conc.,"[6]; room temperature, 12m, 2nd of 2 vials (one inverted)",69.2 µg per 5mL
same,pH,[6]; [9],7.5
same,pH,[6]; [10],7.5
same,Conc.,"[6]; room temperature, 18m, 1st of 2 vials (one inverted)",70.4 µg per 5mL
same,Conc.,"[6]; room temperature, 18m, 2nd of 2 vials (one inverted)",70.2 µg per 5mL
same,pH,[6]; [11],7.5
same,pH,[6]; [12],7.5
same,Conc.,"[6]; room temperature, 24m, 1st of 2 vials (one inverted)",72.96 µg per 5mL
same,Conc.,"[6]; room temperature, 24m, 2nd of 2 vials (one inverted)",72.52 µg per 5mL
same,Conc.,"[6]; room temperature, 24h, 1st of 2 vials (one inverted)",74.3 µg per 5mL
same,Conc.,"[6]; room temperature, 24h, 2nd of 2 vials (one inverted)",74.5 µg per 5mL
same,Conc.,"[6]; room temperature, 15d, 1st of 2 vials (one inverted)",70.2 µg per 5mL
same,Conc.,"[6]; room temperature, 15d, 2nd of 2 vials (one inverted)",70.3 µg per 5mL
same,pH,[6]; timepoint 0,7.5
same,∆%,[6]; [13],+10.0%
same,∆%,[6]; [14],+9.70%
same,∆%,[6]; [15],-0.90%
same,∆%,[6]; [16],-0.90%
same,∆%,[6]; [17],+1.00%
same,∆%,[6]; [18],+0.80%
same,∆%,[6]; [19],+1.50%
same,∆%,[6]; [20],+1.00%
same,∆%,[6]; [7],+0.00%
same,∆%,[6]; [8],-1.15%
same,∆%,[6]; [9],+0.6%
same,∆%,[6]; [10],+0.3%
same,∆%,[6]; [11],+4.2%
same,∆%,[6]; [12],+3.6%
same,∆%,[6]; [21],+6.0%
same,∆%,[6]; [22],+6.0%
same,∆%,[6]; [23],+0.14%
same,∆%,[6]; [24],+0.21%
same,Total imp. RRT(%),[6]; [13],ND/NQ ND/NQ
same,Total imp. RRT(%),[6]; [14],ND/NQ ND/NQ
same,Total imp. RRT(%),[6]; [15],ND/NQ ND/NQ
same,Total imp. RRT(%),[6]; [16],ND/NQ ND/NQ
same,Total imp. RRT(%),[6]; [17],ND/NQ ND/NQ
same,Total imp. RRT(%),[6]; [18],ND/NQ ND/NQ
same,Total imp. RRT(%),[6]; [19],ND/NQ ND/NQ
same,Total imp. RRT(%),[6]; [20],ND/NQ ND/NQ
same,Total imp. RRT(%),[6]; [7],ND/NQ ND/NQ
same,Total imp. RRT(%),[6]; [8],ND/NQ ND/NQ
same,Total imp. RRT(%),[6]; [9],ND/NQ ND/NQ
same,Total imp. RRT(%),[6]; [10],ND/NQ ND/NQ
same,Total imp. RRT(%),[6]; [11],ND/NQ ND/NQ
same,Total imp. RRT(%),[6]; [12],ND/NQ ND/NQ
same,Total imp. RRT(%),[6]; [21],ND/NQ ND/NQ
same,Total imp. RRT(%),[6]; [22],ND/NQ ND/NQ
same,Total imp. RRT(%),[6]; [23],ND/NQ ND/NQ
same,Total imp. RRT(%),[6]; [24],ND/NQ ND/NQ
